{"source": "patent US10556860B2", "about": "“hTERT modulators and methods of use” (Arizona Board of Regents on Behalf of the University of …, priority 2015, dated 2020)", "key": {"[1]": {"system": "G138/139A 5-12 G-quadruplex", "test": "CD kinetics, temperature-jump, G138/139A", "format": "biochemical, human", "conditions": "2 equiv", "experimental": "FIGS. 10A and 10B are a set of graphs showing (A) comparison of kinetics of initial folding rate of the WT 5-12 G-quadruplex with GTC365 and BRACO-19 by the temperature-jump method. (B) Enhanced initial folding rate of the 5-12 G-quadruplexes carrying different hTERT mutants by GTC365. The time-course CD signal of preheated oligo with compound or DMSO in a buffer containing 10 mM Tris-HCl (pH 7.5) and 5 mM KCl was monitored at 262 nm and 25° C.\nFor the kinetics analysis using the temperature-jump method, theoligo in a buffer containing 10 mM Tris-HCl (pH 7.5) was heated forl min at 95° C., and then a mixture of KCl and compound was addedand incubated for 1 min. Meanwhile, the CD cuvette was also heatedat 95° C. As soon as the sample in the CD cuvette at the hightemperature was placed in the CD chamber, a time-dependent CDsignal at 262 nm was recorded immediately. The initial folding ratewas determined by one-phase association curve fitting (eq 1) of thekinetics curve using GraphPad Prism 5: Y=Y0+(Plateau−Y0)*(1−e^−kx) (1) where Y is the CD signal at any time point x, Y0 is the Y value whentime (x) is zero, plateau is the Y value at infinite time, and k is the rateconstant.\nTo evaluate the comparative effects of GTC365 relative to BRACO-19 on the cooperative folding process, we carried out two different experiments. […]"}, "[2]": {"system": "hTERT under the control of the CMV promoter", "test": "hTERT transcription in MCF7 cells overexpressing hTERT under CMV promoter", "format": "cell-based, human", "conditions": "MCF7 cell line transfected with plasmid overexpressing hTERT (CMV promoter)", "experimental": "qPCR. MCF7 and melanoma cells were treated with GTC365 and BRACO-19 for 72 h. Total RNA was extracted using an RNeasy mini-prep kit (Qiagen) and quantitated by measuring absorbance at 260 nm. cDNA was synthesized using a Takara PrimeScript™ RT Reagent Kit with gDNA eraser and then used as a template for qPCR. The qPCR was performed using Kapa Probe Fast qPCR Master Mix with ABI Taqman probes of hTERT (Hs00972656_m1), BCL2 (HS00608023_m1, FAM-labeled) or MYC (Hs00153408_m1), and GAPDH (Hs02758991_g1, VIC-labeled). The Ct values were measured by running Rotor-Gene Q, and the relative quantity of hTERT, BCL2, and MYC mRNA was obtained compared to GAPDH as an internal control.\nEstablishment of stable cell lines overexpressing hTERT. The pCDNA-3XHA-hTERT plasmid containing hTERT driven by theCMV promoter was obtained from Addgene (ID: 51637) deposited by Dr. Steven Artandi. MCF7 cells in a 24-well plate were transfected with this plasmid (250 ng) using FuGENE HD transfection reagent for24 h. Cells were treated with several concentrations of G418 (0.1-1 mg/mL) and an antibiotic for colony selection for 4 weeks, and thenone colony was selected for further culture. […]"}, "[3]": {"system": "G146A mutant hTERT G-quadruplex", "test": "CD melting (Tm), G146A mutant", "format": "binding, human", "conditions": "2 equiv", "experimental": "Circular dichroism. Oligomers of WT, G124A, G124/125A, G138/139A and G146A were synthesized and HPSF-purified by MGW Operon, Inc. For CD analysis, oligomers (5 μM) in a buffer containing 10 mM Tris-HCl (pH 7.5) and 140 mM KCl were annealed. For the CD analysis of the complex of oligomers and compounds, oligomers (5 μM) in a buffer containing 10 mM Tris-HCl (pH 7.5) and 5 mM KCl for GTC365 or 1 mM KCl for BRACO-19 were annealed. Oligomers and GTC365 or BRACO-19 were incubated overnight at room temperature. For the full-length of C-rich strand, the oligomer in a buffer of 10 mM Na cacodylate (pH 6.6) was annealed and then incubated with GTC365 overnight. CD analysis was conducted on a Jasco 810 spectropolarimeter (Jasco, Easton, Md.) using a quartz cell with 1 mm of path length, 1 nm of band width, and 1 s of response time for spectra at 20° C. Melting curves for the determination of Tm were obtained by recording ellipticity at 262 nm with increasing temperatures from 25° C. to 95° C. at a rate of 1.6° C./min. Tm of the C-rich strand with GTC365 was obtained from the CD signal at 286 nm within 10-60° C.\nCD and DMS footprinting analyses were conducted to characterize the binding of GTC365 and BRACO-19 to the 5-12 G-quadruplex. […] To verify the effects of compounds on the thermal stability of the WT and the mutant G-quadruplexes, Tms were determined by CD. […]"}}, "data": [{"smiles": "N=C(N)NCCCS(=O)(=O)Nc1ccc(Nc2c3ccccc3nc3cc([N+](=O)[O-])ccc23)cc1", "note": "[GTC365]", "values": [{"measurement": "effect on initial folding rate", "setting": "[1]", "result": "insignificant"}, {"measurement": "effect on hTERT transcription", "setting": "[2]", "result": "no effect"}, {"measurement": "Tm more increased compared to the WT", "setting": "[3]", "result": "6-7 °C"}]}]}
